Data: US11938127B2, “Methods and compositions relating to steroid hormone receptor-dependent proliferative disorders” (Wayne State University, priority 2021, dated 2024)
Where two headings read alike, the source gives them in different places.

How the values were obtained:
CWR22Rv1-AR-EK cells = assay: MTT growth assay in CWR22Rv1-AR-EK cells; type: cell-based; settings: three or four days
Procedure: This model cell line thus mimics aggressively growing advanced prostate cancer tumor cells that are insensitive to current treatments such as testosterone suppression and androgen antagonists that cannot affect AR-Vs. Since KCI838 disrupts interaction of ELK1 with wtAR as well as AR-Vs, the effect of KCI838 on the growth of CWR22Rv1-AR-EK cells was tested. For this test, the cells were seeded in phenol red-free growth media. 24 hours later, the cells were treated with KCI838, FIG. 12A, or enzalutamide, FIG. 12B, at the indicated concentrations. Cells were grown for three or four days with replenishment of the drug at 48 hours. Cell viability was measured using the MTT assay.

22Rv1 cells [1] = assay: Cell viability (MTT) assay, monolayer growth of 22Rv1 cells; type: cell-based; settings: enzalutamide-resistant 22Rv1 CRPC monolayers; 2.5 uM, 5 uM and 10 uM
Procedure: (§1) Cells from monolayer cultures were trypsinized and seeded in 96-well plates coated with poly(d-lysine) at a density of 4000 cells per well (for 22Rv1 cells and LNCaP cells) or 5000 cells per well (for VCaP cells). The media used were the same as the growth media described above for each cell line. The plates were incubated at 37° C. in 5% CO2. Twenty-four hours later, the cells were treated with the indicated compound or dimethylsulfoxide (vehicle). The culture medium was replaced with fresh media containing vehicle or the appropriate concentration of compound at the end of 48 hours during the time course of the assay. Cell viability was determined on Day 0 and at the various time points using the standard 3-(4,5-dimethylthiazol-2-yl)-2,5-diphenyltetrazolium bromide (MTT) assay. The assays ware conducted in replicates of six wells per condition and values plotted as percent of the Day 0 values.

VCaP cells = assay: Cell viability (MTT) assay, monolayer growth of VCaP cells; type: cell-based; settings: dose range 2.5 uM-10 uM; dose-dependent
Procedure: as §1

22Rv1 cells [2] = assay: Colony formation assay in 22Rv1 cells; type: cell-based; settings: 22Rv1 CRPC cells
Procedure: (§2) 22Rv1 cells were plated in triplicate at a density of 2000 cells/well in 6-well plates in 48-hour conditioned medium (phenol-red free RPMI1640 10% FBS, 1% penicillin/streptomycin, 1% L-glutamine) obtained from monolayer cultures of the same cells, as previously described. 48 h after plating, the cells were treated with various concentrations of the test compounds in the same media. The test compounds and media were replenished every 48 hours until colonies developed in the control untreated wells (in 10 days). The colonies were then stained with crystal violet and counted.
The ability of KCI837 to inhibit colony formation in castration and enzalutamide resistant prostate cancer cells was tested. 22Rv1 cells were seeded in triplicate six well plates in phenol red-free conditioned media. 48 hours later, treatment with KCI837 at the indicated doses was initiated. KCI837 was replenished every 48 hours. Seven days later, colonies were fixed and stained with crystal violet. Colony counts are plotted.

UGT1A1 [3] = target: UGT1A1 (Homo sapiens (Human), UniProt P22309); assay: UGT1A1 inhibition assay with human UGT1A1-expressed Supersomes; type: in vitro ADME
Sequence of UGT1A1 (Homo sapiens (Human), UniProt P22309) (P22309 26-533): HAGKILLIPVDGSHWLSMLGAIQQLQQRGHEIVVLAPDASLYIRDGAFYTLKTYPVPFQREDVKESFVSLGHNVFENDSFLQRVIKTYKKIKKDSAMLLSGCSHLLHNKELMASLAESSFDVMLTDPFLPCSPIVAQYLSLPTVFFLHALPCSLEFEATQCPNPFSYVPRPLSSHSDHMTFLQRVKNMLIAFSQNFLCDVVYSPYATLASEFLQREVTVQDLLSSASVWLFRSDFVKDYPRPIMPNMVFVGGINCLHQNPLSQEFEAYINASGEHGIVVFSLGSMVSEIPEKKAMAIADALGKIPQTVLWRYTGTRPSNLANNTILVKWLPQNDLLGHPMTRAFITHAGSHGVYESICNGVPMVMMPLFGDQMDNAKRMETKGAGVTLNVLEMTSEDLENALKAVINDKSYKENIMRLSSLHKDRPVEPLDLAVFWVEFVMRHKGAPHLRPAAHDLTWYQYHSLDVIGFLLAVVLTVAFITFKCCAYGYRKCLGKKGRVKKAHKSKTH
Procedure: KCI838 was incubated at seven increasing concentrations with human UGT1A1-expressed Supersomes™ (0.25 mg/mL), alamethicin (25 μg/mL) and UDPGA (5 mM) in the presence of the probe substrate estradiol (10 μM) for 30 min at 37° C. The UGT1A1 inhibitor, atazanavir, was screened alongside the test compounds as a positive control. The reactions were terminated by quenching with one volume of methanol containing an analytical internal standard. The samples will be centrifuged at 5000 rpm for 10 min at 4° C. The metabolites were monitored by LC-MS/MS and a decrease in the formation of the metabolite compared to the vehicle control was used to calculate an IC50 value (test compound concentration which produces 50% inhibition).

22Rv1-Lenti AR cells = assay: Colony formation in 22Rv1 cells overexpressing AR; type: cell-based; settings: AR overexpressing 22Rv1 cells
Procedure: as §2
(§3) AR expressing lentiviral expression plasmid pCDH-CMV-MCS-EF1-puro (System BioSciences) or the plasmid vector alone (control), was packaged in 293FT cells. Virus-containing media was harvested at 48 and 72 hours after packaging and stored at −80° C. 48 hours before infection, 22Rv1 cells were plated at 30-50% confluence in 10 cm dishes in phenol-red free medium supplemented with 10% heat-inactivated FBS and 2 mM L-glutamine. On the day of infection, cells were infected with the lentivirus with polybrene (8 μg/mL) for a duration of 5 hours. The virus was then replaced with fresh medium containing 10% FBS and 100 units/mL penicillin, 100 μg/mL streptomycin, and 2 mM L-glutamine mixture. […]

binding of AR to ELK1 = binding of AR to ELK1 (Homo sapiens (Human), UniProt P10275); assay: BRET assay for inhibition of in situ binding of AR to ELK1 in HEK293T cells; type: cell-based; settings: HEK-293T, read-out: inhibition of BRET signal for binding of AR to ELK1
Sequence of binding of AR to ELK1 (P10275 whole entry): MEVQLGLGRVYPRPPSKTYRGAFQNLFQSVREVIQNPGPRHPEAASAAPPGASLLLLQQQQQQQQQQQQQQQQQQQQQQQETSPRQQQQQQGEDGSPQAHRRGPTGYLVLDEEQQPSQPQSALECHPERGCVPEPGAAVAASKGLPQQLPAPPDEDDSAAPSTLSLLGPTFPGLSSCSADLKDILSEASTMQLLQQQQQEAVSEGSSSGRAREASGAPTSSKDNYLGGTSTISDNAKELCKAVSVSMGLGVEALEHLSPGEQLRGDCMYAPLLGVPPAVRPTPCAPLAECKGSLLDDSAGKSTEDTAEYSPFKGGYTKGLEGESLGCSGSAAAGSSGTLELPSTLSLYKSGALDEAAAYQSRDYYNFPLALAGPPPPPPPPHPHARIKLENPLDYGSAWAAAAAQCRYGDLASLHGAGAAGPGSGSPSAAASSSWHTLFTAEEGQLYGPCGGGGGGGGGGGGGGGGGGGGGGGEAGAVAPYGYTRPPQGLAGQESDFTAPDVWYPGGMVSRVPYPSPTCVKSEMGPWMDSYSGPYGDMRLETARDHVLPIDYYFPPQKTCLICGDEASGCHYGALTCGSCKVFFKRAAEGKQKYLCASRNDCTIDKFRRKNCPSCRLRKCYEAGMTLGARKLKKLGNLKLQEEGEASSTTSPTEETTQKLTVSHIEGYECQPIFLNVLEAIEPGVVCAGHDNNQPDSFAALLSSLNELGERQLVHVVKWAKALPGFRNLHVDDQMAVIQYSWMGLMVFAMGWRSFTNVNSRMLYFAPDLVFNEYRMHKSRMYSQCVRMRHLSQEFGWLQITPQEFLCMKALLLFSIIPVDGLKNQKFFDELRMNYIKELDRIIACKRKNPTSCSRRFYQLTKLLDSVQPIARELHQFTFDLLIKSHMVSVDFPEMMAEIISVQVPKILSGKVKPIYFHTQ
Procedure: (§4) HEK293T cells were transfected with Rluc-AR alone, and alongside Turbo-Elk at a 4:1 ratio of ELK1:AR using Mirus LT1 reagent. The 4:1 ratio was determined to be the optimal ratio for the inhibition assay after testing different ratios of Turbo-Elk:Rluc-AR. 24 hours later, cells were treated with DMSO (vehicle control) or KCI838 (0.4 uM and 10 uM) and left for 24 hours. They were then trypsinized and seeded in 96 well white-bottomed plates at 100,000 per well (in quadriplicate) in media lacking phenol red (with DMSO or drug as required), left for 2 hours to settle, and then treated with 25 uM coelenterazine and luminescence read at 535 and 635 nm on a Clariostar instrument. BRET readings were calculated as 635/535 ratio minus 635/535 ratio for Rluc-AR only transfected controls. Cell lysates were probed by western blot for AR or ELK1, probing for GAPDH as the loading control. Cell viability in the presence of KCI838 was ensured by treating HEK293 cells for an extended period (3 days) with the compound or vehicle control and measuring viability using trypan blue staining.
HEK293T cells were transfected with Rluc-AR alone, and alongside Turbo-Elk. 24 hours later, cells were treated with KCI838 at the indicated doses. The following day, the cells were reseeded and allowed to settle for two hours before the BRET assay was performed. […]

HEK293 cells = assay: Viability of HEK293 cells (trypan blue); type: cell-based; settings: 3 days treatment, 0.4 μM or 10 μM
Procedure: as §4
To ensure that KCI838 was not toxic to the HEK293 cells, viability of the cells was tested following extended (3 days) treatment with, vehicle, 0.4 μM, or 10 μM KCI838. Viable cells were counted after three days and the data was plotted as percent of untreated cells.

22Rv1-Lenti vector cells = assay: Colony formation in control 22Rv1 cells transduced with lentiviral vector alone; type: cell-based; settings: control 22Rv1 cells (vector), with DHT
Procedure: as §2, §3

CYP1A2 [4] = assay: Hepatic enzyme induction (mRNA) in primary human hepatocytes, CYP1A2; type: in vitro ADME; settings: 72 hours
Procedure: (§5) Total RNA from cells was isolated using the PureLink RNA Mini Kit (Invitrogen, ThermoFisher Scientific) according to the manufacturer's protocol. Reverse transcription was performed using 30 ng of total RNA and the High Capacity cDNA Reverse Transcription kit (Applied Biosystems, ThermoFisher Scientific) according to the vendor's protocol. cDNA was measured by quantitative real time PCR using the StepOnePlus Real-Time PCR System (Applied Biosystems, Invitrogen) and TaqMan Fast Universal PCR Master Mix (Applied Biosystems, ThermoFisher Scientific). All primers and TaqMan probes were purchased from the Applied Biosystems inventory (ThermoFisher Scientific). All samples were measured in triplicate and normalized to the values for GAPDH.
(§6) Primary human hepatocytes used were the “Cryo Human Hepatocytes” from Gibco. 24 hours prior to treatment, cells were plated at 350,000 cells/well (700,000 cells/mL) in the following media: Williams E medium (WEM, A1217601), 2.5 mL FBS, 5 μL, 10 mM dexamethasone (from Gibco Thawing/Plating Supplement Pack, CM3000), 1.8 mL thawing/plating cocktail (from Gibco Thawing/Plating Supplement Pack, CM3000). […] The mRNAs for the following hepatic enzymes were quantified as described above. […]

CYP1A2 [5] = target: CYP1A2 (Homo sapiens (Human), UniProt P05177); assay: CYP1A2 inhibition assay in pooled human liver microsomes; type: in vitro ADME; settings: standard enzymatic activity assay
Sequence of CYP1A2 (Homo sapiens (Human), UniProt P05177) (P05177 whole entry): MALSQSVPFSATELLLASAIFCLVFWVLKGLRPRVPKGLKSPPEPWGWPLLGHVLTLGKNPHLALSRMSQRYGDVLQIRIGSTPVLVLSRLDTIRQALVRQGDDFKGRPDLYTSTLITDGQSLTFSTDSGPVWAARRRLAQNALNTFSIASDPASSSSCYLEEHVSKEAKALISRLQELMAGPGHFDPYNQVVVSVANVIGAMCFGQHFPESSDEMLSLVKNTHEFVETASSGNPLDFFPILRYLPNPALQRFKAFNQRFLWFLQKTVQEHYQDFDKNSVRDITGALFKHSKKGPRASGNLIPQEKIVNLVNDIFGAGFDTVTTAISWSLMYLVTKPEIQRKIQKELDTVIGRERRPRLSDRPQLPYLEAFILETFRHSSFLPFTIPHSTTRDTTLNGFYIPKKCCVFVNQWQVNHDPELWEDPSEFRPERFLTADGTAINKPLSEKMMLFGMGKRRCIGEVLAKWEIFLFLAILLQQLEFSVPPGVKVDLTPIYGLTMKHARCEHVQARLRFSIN
Procedure: The quenched samples were incubated at 4° C. for 10 min and centrifuged at 4° C. for 10 min.

UGT1A1 [6] = assay: Hepatic enzyme induction (mRNA) in primary human hepatocytes, UGT1A1; type: in vitro ADME; settings: 72 hours, doses of 0.5 uM and 5 uM
Procedure: as §5, §6

[7] = Repeated intraperitoneal administration to mice (toxicity, body weight); type: in vivo, BalbC mice; settings: for initial weight loss: male BalbC mice, intraperitoneal
Procedure: KCI838 was repeatedly administered by intraperitoneal injection to two groups of 6-week old male BalbC mice at doses of 200 mg/Kg and 100 mg/Kg.

UGT1A4 = assay: Hepatic enzyme induction (mRNA) in primary human hepatocytes, UGT1A4; type: in vitro ADME; settings: 72 hours, doses of 0.5 uM and 5 uM
Procedure: as §5, §6

In the case of `CNC(=O)c1ccc(N2C(=S)N(c3ccc(C#N)c(C(F)(F)F)c3)C(=O)C2(C)C)cc1F` [enzalutamide], the “growth of CWR22Rv1-AR-EK cells” value (CWR22Rv1-AR-EK cells) is reported as “insensitive”, the “time course of growth inhibition” value (22Rv1 cells [1]) is reported as “did not inhibit cell growth” and the “monolayer growth of VCaP cells” value (VCaP cells) is reported as “inhibited monolayer growth”. The “effect on colony formation” value (22Rv1 cells [2]; nanomolar dose range) was “no effect on colony formation”.
For `COC(=O)N[C@H](C(=O)N[C@@H](Cc1ccccc1)[C@@H](O)CN(Cc1ccc(-c2ccccn2)cc1)NC(=O)[C@@H](NC(=O)OC)C(C)(C)C)C(C)(C)C` [atazanavir, reference compound], the IC50 (UGT1A1 [3]; human UGT1A1 Supersomes, probe substrate estradiol (10 μM), 30 min at 37° C., read-out: IC50) was 792 nM.
In the case of `O=c1cc(-c2cccc(O)c2)n(CC(F)(F)F)c2cccc(O)c12` [KCI838], the “inhibition of colony formation at 68 nM” value (22Rv1-Lenti AR cells; 68 nM) is reported as “no inhibition”, the IC50 (22Rv1-Lenti AR cells; Homo sapiens, with DHT, read-out: IC50 for inhibition of colony formation) is reported as 132 nM and the inhibition at 0.4 µM (binding of AR to ELK1; 0.4 μM) is reported as 60%. For the same compound, the inhibition at 10 µM (binding of AR to ELK1; 10 μM) was 95%, the “viability of HEK293 cells” value (HEK293 cells) was “virtually completely viable” and the IC50 (22Rv1-Lenti vector cells; Homo sapiens, read-out: IC50 for inhibition of colony formation) was 68 nM. For the same compound, the “IC75 for inhibition of colony formation” value (22Rv1-Lenti vector cells) was 121 nM, the “induction of CYP1A2” value (CYP1A2 [4]; 0.5 uM dose) was “unable to induce CYP1A2” and the “induction of CYP1A2” value (CYP1A2 [4]; higher doses than 0.5 uM) was “induce the enzyme”. For the same compound, the IC50 (CYP1A2 [5]) was 2920 nM, the “induction of UGT1A1” value (UGT1A1 [6]) was “not induced significantly” and the signs of toxicity ([7]; 6-week old male BalbC mice, repeated intraperitoneal injection, 200 mg/Kg and 100 mg/Kg) was “no apparent signs of toxicity”. It also gave an initial weight loss ([7]; 100 mg/Kg) of about 2%, an initial weight loss ([7]; 200 mg/Kg) of about 4% and an IC50 (UGT1A1 [3]; standard enzymatic activity assay, read-out: IC50 value for UGT1A1) of 35900 nM. The “induction of UGT1A4” value (UGT1A4) was “not induced significantly” and the IC50 (22Rv1 cells [2]; Homo sapiens, read-out: IC50 of colony counts) was about 60 nM.
